Laboratory results reported in article PMC11274883, “Anticancer Effect of Pt^[sequence], Pt^II5MESS, Pt^II56MESS and Their Platinum(IV)-Dihydroxy Derivatives against Triple-Negative Breast Cancer and Cisplatin-Resistant Colorectal Cancer” (Cancers, 2024).

Legend:
Format in all cases: cell-based
[1] = test system: MCF10A; assay: WST-1 cytotoxicity, 72 h; conditions: mean ± SEM
Method: Cells were seeded in 96-well flat-bottom culture plates at a concentration of 1000 cells per well. […] After 72 h, the medium was removed and replaced with new medium. The cell viability reagent WST-1 (10 µL, Roche Diagnostics, Indianapolis, IN, USA) was added to each well. After an hour, the absorbance was measured at 450 nm using a versatile microplate reader (Bio-strategy, Campbellfield, VIC, Australia). Three separate experiments were performed, each with n = 3 replicates. GraphPad prism 10 was used to calculate apparent IC50 values using the nonlinear regression model Y = Bottom + (Top-Bottom)/(1 + 10^(X-LogIC50)) where Top and bottom are plateaus in the y-axis (% survival). The R^2 value of the curve fits ranged from 0.8972 to 0.9794.

[2] = test system: HT29 cells; assay: DCFDA cellular ROS detection assay; conditions: complexes at IC50, TBHP 20 µM
Method: (§1) DCFDA/H2DCFDA-cellular ROS Assay Kit (Abcam, Cambridge, MA, USA) was used to investigate the production of ROS in treated cells, as previously described. MDA−MB−231 or HT29 cells were seeded at a total concentration of 2500 cells/well in 96-well plates and incubated overnight. DMEM was then removed, and cells washed with 1× kit buffer, and stained with 25 µM 2′,7′-dichlorofluorescein diacetate (DCFH-DA) for 45 min. […] After that, the plates were scanned using the Glo-Max®-Multimode microplate reader (Promega Corporation, Alexandra, VIC, Australia) at an excitation/emission of 485/535 nm to detect fluorescence (relative fluorescence units, or RFU) at various time points. A positive control was generated using 20 µM tert-butyl hydroperoxide (TBHP), and the same procedure was applied with DCFDA. Three independent experiments in triplicates were implemented.

[3] = test system: MDA−MB−231 cells; assay: DCFDA cellular ROS detection assay; conditions: complexes at IC50, TBHP 20 µM
Method: as §1

[4] = test system: HT29 cells; assay: Western blot protein expression; conditions: HT29, IC50, 72 h
Method: (§2) Protein extraction was then performed on ice. Media were collected in Eppendorf tubes, and centrifuged at 500× g for 5 min at 4 °C. Meanwhile, 200 µL of lysis RIPA buffer, made up of 150 mM NaCl, 50 mM Tris-HCl, pH 8.0, 0.1% Triton X-100, 0.5% sodium deoxycholate, 0.1% SDS and 1 mM sodium orthovanadate, was added to each well, the cells were scrapped into the buffer, and added to the media-derived pellets. The tubes were placed on the shaker for 10 min at 4 °C. Then, cell extracts were centrifuged at 12,000× g for 15 min at 4 °C, and the supernatants (containing the proteins) were collected. The Bio-Rad-DC protein assay (Bio-Rad, Hercules, CA, USA) was used to assess protein content. Laemmli protein sample buffer (4×) with β-mercaptoethanol (9%) was used to prepare a final protein concentration of 20 µg. The samples were then heated at 100 °C for 5 min. A final volume of 30 µL of each sample was added per well and subjected to SDS-PAGE using Bolt 4–12% Bis-Tris gel (Thermo Fisher, Eugene, OR, USA) at 80 V for 30 min and then 120 V for 60 min with PageRuler™ Prestained Protein or SeeBlue Prestained Protein Ladder (Thermo Fisher, Eugene, OR, USA). Proteins were subsequently transferred to a 0.2 µm PVDF membrane (Amersham, Cytiya) using a semi-dry blot transfer. The membrane was then blocked in 5% BSA in TBST, for 1 h and probed overnight at 4 °C with primary antibodies against several cell proliferation, apoptotic, anti-apoptotic, microtubule and autophagic protein markers listed in Table S7 as per the manufacturer’s protocol. The primary antibody was then removed, washed three times for 10 min with TBST and then membranes were treated with either mouse or rabbit HRP-coupled secondary antibodies (1/3000) for 1 h and 30 min. Protein band detection was then performed using the chemiluminescence ECL kit (Thermo Fisher, Eugene, OR, USA). Blot images were obtained using the Odyssey® FC imaging system (LI-COR Biosciences, Lincoln, NE, USA) and band intensities were quantified relatively to glyceraldehyde-3-phosphate dehydrogenase (GAPDH) and then normalised each replicate gel to its corresponding no treatment control using the ImageJ v1.53t software (National Institutes of Health, Bethesda, MD, USA). Each marker results from the same experiment or parallel experiment where the gels were processed in parallel. Three independent experiments per marker were conducted.

[5] = test system: MDA−MB−231 cells; assay: Western blot protein expression; conditions: MDA−MB−231, IC50, 72 h
Method: as §2

[6] = representative blot Figure S30G
[7] = representative blot Figure S30H

Structure (SMILES): Cc1cc2cccnc2c2ncccc12.N[C@H]1CCCC[C@@H]1N.O=[N+]([O-])[O-].O=[N+]([O-])[O-].[Pt+2] [Pt^II5MESS, [Pt(5-methyl-1,10-phenanthroline)(1S,2S-diaminocyclohexane)](NO3)2]
- IC50 [1]: 1180 ± 1750 nM
- ROS production ([2]; HT29, 24 h): 278.00 RFU
- ROS production ([2]; HT29, 48 h): 362.89 RFU
- ROS production ([2]; HT29, 72 h): 404.44 RFU
- ROS production ([3]; MDA−MB−231, 24 h): 316.23 RFU
- ROS production ([3]; MDA−MB−231, 48 h): 372.49 RFU
- ROS production ([3]; MDA−MB−231, 72 h): 399.97 RFU
- β-actin/GAPDH normalized to control (1) ([4]; representative blot Figure S28A): 0.2979
- β-tubulin/GAPDH normalized to control (1) ([4]; representative blot Figure S28B): 0.1238
- α-tubulin/GAPDH normalized to control (1) ([4]; representative blot Figure S28C): 0.06789
- p-AKT/AKT/GAPDH normalized to control (1) ([4]; representative blot Figure S29A): 0.07338
- p-ERK/ERK/GAPDH normalized to control (1) ([4]; representative blot Figure S29B): 0.7076
- p53/GAPDH normalized to control (1) ([4]; representative blot Figure S29C): 1.275
- p21/GAPDH normalized to control (1) ([4]; representative blot Figure S29D): 1.147
- Bax/GAPDH normalized to control (1) ([4]; representative blot Figure S30A): 1.624
- Bcl2/GAPDH normalized to control (1) ([4]; representative blot Figure S30B): 0.09591
- Cyt C/GAPDH normalized to control (1) ([4]; representative blot Figure S30C): 3.741
- Procaspase 8/GAPDH normalized to control (1) ([4]; representative blot Figure S30D): 0.2934
- Cleaved BID/GAPDH normalized to control (1) ([4]; representative blot Figure S30E): 1.69
- Procaspase 9/GAPDH normalized to control (1) ([4]; representative blot Figure S30F): 0.1393
- Cleaved caspase 3/GAPDH normalized to control (1) [4, 6]: 10.88
- Procaspase 3/GAPDH normalized to control (1) [4, 6]: 0.7678
- Cleaved PARP-1/GAPDH normalized to control (1) [4, 7]: 11.42
- PARP-1/GAPDH normalized to control (1) [4, 7]: 0.2554
- Beclin1/GAPDH normalized to control (1) ([4]; representative blot Figure S31A): 3.11
- ATG5/GAPDH normalized to control (1) ([4]; representative blot Figure S31B): 0.9969
- ATG16L1/GAPDH normalized to control (1) ([4]; representative blot Figure S31C): 1.285
- ATG9A/GAPDH normalized to control (1) ([4]; representative blot Figure S31D): 0.4486
- ATG4B/GAPDH normalized to control (1) ([4]; representative blot Figure S31E): 0.7306
- LC3B/GAPDH normalized to control (1) ([4]; representative blot Figure S31F): 1.207
- β-actin/GAPDH normalized to control (1) ([5]; representative blot Figure S24A): 0.7082
- β-tubulin/GAPDH normalized to control (1) ([5]; representative blot Figure S24B): 0.4163
- α-tubulin/GAPDH normalized to control (1) ([5]; representative blot Figure S24C): 0.6399
- p-AKT/AKT/GAPDH normalized to control (1) ([5]; representative blot Figure S25A): 0.5388
- p-ERK/ERK/GAPDH normalized to control (1) ([5]; representative blot Figure S25B): 0.5947
- p53/GAPDH normalized to control (1) ([5]; representative blot Figure S25C): 0.7809
- p21/GAPDH normalized to control (1) ([5]; representative blot Figure S25D): 2.478
- Bax/GAPDH normalized to control (1) ([5]; representative blot Figure S26A): 1.886
- Bcl2/GAPDH normalized to control (1) ([5]; representative blot Figure S26B): 0.5074
- Cytochrome C/GAPDH normalized to control (1) ([5]; representative blot Figure S26C): 1.513
- Procaspase 8/GAPDH normalized to control (1) ([5]; representative blot Figure S26D): 0.5099
- Cleaved BID/GAPDH normalized to control (1) ([5]; representative blot Figure S26E): 14.29
- Procaspase 9/GAPDH normalized to control (1) ([5]; representative blot Figure S26F): 0.3101
- Procaspase 3/GAPDH normalized to control (1) ([5]; representative blot Figure S26G): 0.5405
- PARP-1/GAPDH normalized to control (1) ([5]; representative blot Figure S26H): 0.7693
- Beclin1/GAPDH normalized to control (1) ([5]; representative blot Figure S27A): 2.588
- ATG5/GAPDH normalized to control (1) ([5]; representative blot Figure S27B): 0.5948
- ATG16L1/GAPDH normalized to control (1) ([5]; representative blot Figure S27C): 0.4742
- ATG9A/GAPDH normalized to control (1) ([5]; representative blot Figure S27D): 0.2882
- ATG4B/GAPDH normalized to control (1) ([5]; representative blot Figure S27E): 1.839
- LC3B/GAPDH normalized to control (1) ([5]; representative blot Figure S27F): 0.9366
